Blank lines part the entries; values can stand above or below the compound they belong to.
Columns and labels:
Melanocortin receptor 4 [1] = biological target: T1, Melanocortin receptor 4 (Homo sapiens, UniProt P32245); assay: Antagonist activity at human MC4R expressed in CHO cells assessed as decrease in alpha-MSH induced cAMP level by measuring equilibrium binding constant preincubated for 30 mins followed by alpha-MSH addition measured after 30 mins by HTRF method; type: functional, cell-based; conditions: time 60.0 min
T1 sequence (P32245 whole entry): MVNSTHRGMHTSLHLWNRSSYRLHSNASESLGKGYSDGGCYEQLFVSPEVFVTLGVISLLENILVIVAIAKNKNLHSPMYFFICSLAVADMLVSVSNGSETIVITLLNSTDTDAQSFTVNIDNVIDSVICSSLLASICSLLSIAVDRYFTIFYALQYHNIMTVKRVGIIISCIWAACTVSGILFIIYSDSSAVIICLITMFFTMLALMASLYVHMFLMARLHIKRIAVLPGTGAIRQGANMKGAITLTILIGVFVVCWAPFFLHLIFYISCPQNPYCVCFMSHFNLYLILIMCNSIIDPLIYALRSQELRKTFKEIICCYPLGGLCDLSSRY

Melanocortin receptor 4 [2] = biological target: T1, Melanocortin receptor 4; assay: Displacement of [125I]-[Nle4-D-phe7]-alpha-MSH from to human MC4R expressed in CHO cells incubated for 2 hrs by liquid scintillation counting method; type: cell-based

SMILES: COc1cc([C@@H](C)C(=O)N2CC[C@]3(CCc4cc(-c5nnn(C)n5)c(C)nc4N3)C2)c(Cl)cn1
Kb (Melanocortin receptor 4 [1]; filed as antagonist): 1.2 nM

SMILES: COc1cc([C@@H](C)C(=O)N2CC[C@@]3(CCc4cc(-c5nnn(C)n5)c(C)nc4N3)C2)c(Cl)cn1
Kb (Melanocortin receptor 4 [1]; filed as antagonist): 0.049 nM

SMILES: Cc1nc2c(cc1-c1cnn(C)c1)CC[C@@]1(CCN(C(=O)C(C)c3ccc(OC(F)F)nc3)C1)N2 (stereo partly drawn)
Ki (Melanocortin receptor 4 [2]): 57 nM

SMILES: COc1cc([C@@H](C)C(=O)N2CC[C@@]3(CCc4cc(-c5nc(C(F)F)n(C)n5)c(C)nc4N3)C2)c(Cl)cn1
Kb (Melanocortin receptor 4 [1]; filed as antagonist): 0.08 nM

SMILES: COc1cc(OC)cc([C@@H](C)C(=O)N2CCC3(CCc4cc(-c5cnn(C)c5)c(C)nc4N3)C2)c1 (single isomer, unassigned)
Kb (Melanocortin receptor 4 [1]; filed as antagonist): 0.4 nM

Results, then the compound that gave them:

Ki (Melanocortin receptor 4 [2]): > 200 nM
SMILES: Cc1nc2c(cc1-c1ncccn1)CC[C@@]1(CCN(C(=O)[C@H](C)c3ccc(OC(F)F)nc3)C1)N2

Kb (Melanocortin receptor 4 [1]; filed as antagonist): 8.5 nM
SMILES: Cc1nc2c(cc1-c1ncccn1)CC[C@@]1(CCN(C(=O)[C@@H](C)c3ccc(OC(F)F)nc3)C1)N2

Ki (Melanocortin receptor 4 [2]): 0.28 nM
Kb (Melanocortin receptor 4 [1]; filed as antagonist): 0.07 nM
SMILES: COc1cc([C@@H](C)C(=O)N2CC[C@@]3(CCc4cc(-c5nc6ccccn6n5)c(C)nc4N3)C2)c(Cl)cn1

Ki (Melanocortin receptor 4 [2]): 82 nM
Kb (Melanocortin receptor 4 [1]): > 96 nM
SMILES: Cc1nc2c(cc1-c1ncccn1)CC[C@@]1(CCN(C(=O)C(C)c3ccc(Cl)cc3Cl)C1)N2 (stereo partly drawn)

Ki (Melanocortin receptor 4 [2]): 0.54 nM
Kb (Melanocortin receptor 4 [1]; filed as antagonist): 0.18 nM
SMILES: Cc1nc2c(cc1-c1ncccn1)CC[C@@]1(CCN(C(=O)C(C)c3cc(OC(F)F)ncc3Cl)C1)N2 (single isomer, unassigned)
